From patent US8058309B2, “Protein kinase modulators and therapeutic uses thereof” (Novotyr Therapeutics Ltd., priority 2006, dated 2011) come the findings set out here.

One assay deals with MCF-7. Put plainly: Proliferation assay MCF-7. The format is cell-based. The following applies: Homo sapiens, MCF7, Breast, 72 hours. The protocol: (§1) Various cancer cell lines (listed in table 1) were plated at a density of 1000-5000 cells/well in 96-well plates in 90111 growth medium containing 10% FCS, 100 units/ml penicillin and 100 μg/ml streptomycin. Inhibitors were added a day later in 10 μl of 1% DMSO in DDW to obtain final concentrations of 0, 0.1, 0.3, 1, 3, and 10 μM. The final concentration of DMSO (0.1% DMSO) was kept constant in all samples. Medium with inhibitors was refreshed a day and two days later. Following exposure of the cells to the inhibitors for 72 hours at 37° C., the cells were fixed in 0.5% gluteraldehyde in medium for 10 min, washed three times with DDW, once with 0.1M sodium borate buffer pH 8.5 and stained with 1% methylene blue dissolved in 0.1M borate buffer solution for 60 min. Excess dye was washed out and cell-bound dye was eluted with 200 μl/well of 0.1 M HCl. The optical density value was read at 620 nm in ELISA plate reader. The data was analyzed in Microsoft Excel, using the vehicle control as 100% proliferation. The assays were performed in triplicates. The values in table 1 represent IC50 values derived from the dose-dependent growth curves obtained.
(§2) Compounds 6, 7, 8, and 9 were tested for their inhibitory potential in cell proliferation assay. In this assay cells were exposed to increasing concentrations of the molecules (at 0.1% DMSO in all wells) a day after seeding. Medium and inhibitors were refreshed every day, and following three days of treatment, cells were fixed and stained with methylene-Blue. IC50 values were determined from the curves of the optical density against compound concentration. The assay was performed in triplicates.

A further assay deals with BAF3 Bcr-Abl. Briefly: Proliferation assay BAF3 Bcr-Abl. It counts as cell-based. The settings on record: Mus musculus, Pro B, 72 hours. How it is done:
as §1, §2

The test system of a further assay is OVCAR3. Put plainly: Proliferation assay OVCAR3. The format is cell-based. The following applies: Homo sapiens, OVCAR-3, Ovarian, 72 hours. How it is done:
as §1, §2

The test system of another assay is 1376. Briefly: Proliferation assay 1376. It counts as cell-based. The following applies: Bladder, 72 hours. How it is done:
as §1, §2

A further assay deals with U266. Put plainly: Proliferation assay U266. The format is cell-based. The settings on record: Homo sapiens, U-266, Myeloma, 72 hours. How it is done:
as §1, §2

Another assay has as its system YUMAC. Briefly: Proliferation assay YUMAC. The format is cell-based. The following applies: Homo sapiens. How it is done: as §1, §2
Another assay concerns PC3. Put plainly: Proliferation assay PC3. It counts as cell-based, human. The settings on record: Prostate. The protocol: as §1, §2
The test system of a further assay is MO59K. Briefly: Proliferation assay MO59K. It counts as cell-based. The settings on record: Glioma, 72 hours. How it is done:
as §1, §2

The next assay has as its system A2780. Briefly: Clonogenic assay A2780. The format is cell-based. The following applies: Homo sapiens, Ovarian. How it is done:
(§3) Various cancer cells (listed in table 1) were seeded at a very low concentration (19 cells/well in 96-well plates or 63 cells/well in 24-well plates) in growth medium. A day later medium was replaced with growth medium containing various concentrations of inhibitors in a final concentration of 0.1% DMSO. The inhibitor-containing medium was refreshed three times a week. Following approximately two weeks cells were fixed by adding Gluteraldehide (0.5% final concentration) for 10 min, washed three time with DDW, once with borate buffer 0.1M and stained for 1 hour with 1% Methylene Blue in borate buffer 0.1M. Access stain was washed with water, and following drying colonies were counted. Alternatively, stain was extracted by 0.1N HCl for 1 hour and absorbance at 620 nm was measured by ELISA Reader. The assays were performed in triplicates. The values in table 1 represent IC50 values derived from the dose-dependent growth curves obtained.

For assay [1], the system named is metastatic melanoma YUMAC cells. Put plainly: Apoptosis (cleaved PARP) in YUMAC cells. The following applies: 24 hours of exposure, 3 μM. The format is cell-based, human. How it is done:
In addition, lysates were prepared from cells exposed to inhibitors at various concentrations for 24 hours in the presence or the absence of FCS without stimulation. Lysate preparation and western blot were the same as described above. Apoptosis was detected by immunoblotting with rabbit anti-PARP antibodies.

For a further assay, the system named is Colo-205. Put plainly: Proliferation assay Colo-205. It counts as cell-based. The following applies: Homo sapiens, Colon, 72 hours. The protocol:
as §1, §2

In the next assay the test system is DU145. Put plainly: Proliferation assay DU145. It counts as cell-based. The following applies: Homo sapiens, DU-145, Prostate, 72 hours. How it is done:
as §1, §2

Another assay relates to B16. Briefly: Proliferation assay B16. The settings on record: Mus musculus, Melanoma, 72 hours. It counts as cell-based. How it is done: as §1, §2
For another assay, the system named is MDA MB 231. Put plainly: Proliferation assay MDA MB 231. The format is cell-based. The following applies: Homo sapiens, Breast, 72 hours. How it is done:
as §1, §2

The subject of a further assay is QG56. Briefly: Clonogenic assay QG56. It counts as cell-based. The settings on record: Homo sapiens, QG-56, Lung. The protocol:
as §3

In a further assay the test system is MDA MB 435. Put plainly: Proliferation assay MDA MB 435. The format is cell-based. The following applies: Homo sapiens, Breast, 72 hours. How it is done: as §1, §2
Another assay concerns LIM 1215. Put plainly: Proliferation assay LIM 1215. The format is cell-based. The following applies: LIM1215, Colon, 72 hours. The protocol: as §1, §2
The subject of assay [2] is ovarian cancer A2780 cells. Briefly: Apoptosis (cleaved PARP) in A2780 cells. It counts as cell-based, human. The following applies: 21 hours of exposure. The text has this:
[…] Lysate preparation and western blot were the same as described above. Apoptosis was detected by immunoblotting with rabbit anti-PARP antibodies.

For a further assay, the system named is LNCaP. Briefly: Proliferation assay LNCaP. The format is cell-based. The settings on record: Homo sapiens, Prostate, 72 hours. How it is done:
as §1, §2

The subject of another assay is K562. Briefly: Proliferation assay K562. It counts as cell-based. The settings on record: Homo sapiens, Leukemia, 72 hours. How it is done: as §1, §2
The next assay deals with HT29. Briefly: Proliferation assay HT29. The following applies: Homo sapiens, HT-29, Colon, 72 hours. The format is cell-based. How it is done: as §1, §2
A further assay relates to U138MG. Put plainly: Proliferation assay U138MG. The following applies: Homo sapiens, U138-MG, Glioma, 72 hours. The format is cell-based. The protocol: as §1, §2
Where [3] appears, read: Melanoma, YUMAC, 72 hours, read-out: Proliferation assay IC50.
Setting [4] is: Table 4, 72 hours incubation, read-out: Inhibition of human metastatic melanoma cells, YUMAC IC50.

Read-outs that look alike come from different tables or passages of the source.

Regarding `N#C/C(=C\c1cc(O)c(O)c(I)c1)C(=S)NCc1cc(O)c(O)c(O)c1` [Compound 8], the IC50 in the assay with MCF-7 is 2.8 µM; with BAF3 Bcr-Abl, over 10 µM; in the assay with OVCAR3, 1.9 µM; in the assay on 1376, 0.8 µM; with U266 it was 0.8 µM; with YUMAC (setting [3]), 1.2 µM. Further, the IC50 in the assay on YUMAC (setting [4]) was determined as 1.2 µM; in the assay with PC3 (Homo sapiens, PC-3, 72 h) it was 4.6 µM; in the assay with PC3 (72 hours) it was 3.6 µM; with MO59K it was 0.9 µM; in the assay on A2780, 0.4 µM; in the assay on Colo-205 it was 2.5 µM. Also, the IC50 with DU145 stood at 6.5 µM; in the assay with B16 it was 1.7 µM; with MDA MB 231, 7.4 µM; with QG56 it was 1.4 µM; in the assay on MDA MB 435 it was 2.1 µM; with LIM 1215 it was 6.4 µM. Further, the IC50 with LNCaP is 7.7 µM; in the assay on K562, about 10 µM; with HT29, 6.1 µM; with U138MG, 0.8 µM. For the same compound, the “Cleavage of PARP (apoptosis)” value in assay [1] was “detected”. The “Apoptosis (cleaved PARP detection)” value in assay [2] is “undergo apoptosis”.

Regarding `Oc1cc(CNC(=S)/C=C/c2cc(O)c(O)c(Br)c2)cc(O)c1O` [Compound 9], the IC50 in the assay on MCF-7 turned out to be 2.5 µM; in the assay with BAF3 Bcr-Abl, 6.1 µM; in the assay on OVCAR3 it was 0.9 µM; in the assay with 1376, 1.4 µM; in the assay on U266, 0.9 µM; with YUMAC (setting [3]), 0.6 µM. Further, the IC50 in the assay on YUMAC (setting [4]) stood at 0.6 µM; with PC3 (Homo sapiens, PC-3, 72 h), 2.7 µM; in the assay with PC3 (72 hours) it was 2 µM; in the assay on MO59K, 1.4 µM; with A2780 it was 0.3 µM; in the assay with Colo-205 it was 1.7 µM. The IC50 in the assay with DU145 is 1.8 µM; in the assay on B16, 1.4 µM; in the assay on MDA MB 231 it was over 10 µM; in the assay with QG56, 0.5 µM; in the assay with MDA MB 435, 1.5 µM; in the assay with LIM 1215, 3.3 µM. Moreover, the IC50 is 4.7 µM in the assay on LNCaP, over 10 µM in the assay on K562, 1.5 µM with HT29 and 0.2 µM with U138MG. For the same compound, the “Cleavage of PARP (apoptosis)” value in assay [1] was “detected”. Also, in assay [2], the “Apoptosis (cleaved PARP detection)” value is reported as “undergo apoptosis”.

On to `N#C/C(=C\c1cc(O)c(O)c(Br)c1)C(=S)NCc1cc(O)c(O)c(O)c1` [Compound 7], for which the IC50 in the assay on MCF-7 worked out at 4.8 µM; with BAF3 Bcr-Abl it was 8.2 µM; with OVCAR3 it was 2 µM; in the assay with 1376, 0.9 µM; with U266, 0.8 µM; with YUMAC (setting [3]) it was 1.2 µM. Also, the IC50 turned out to be 1.2 µM in the assay on YUMAC (setting [4]); 2.8 µM with PC3 (Homo sapiens, PC-3, 72 h); 3.9 µM with PC3 (72 hours); 0.7 µM in the assay on MO59K; 0.4 µM with A2780; 5.4 µM in the assay on Colo-205. Also, the IC50 with DU145 came out at 6.6 µM; in the assay with B16 it was 1.9 µM; with MDA MB 231 it was 6.3 µM; with QG56, 1.7 µM; in the assay on MDA MB 435, 2.7 µM; with LIM 1215, 6.5 µM. Also, the IC50 with LNCaP is over 10 µM; in the assay on K562 it was about 10 µM; in the assay with HT29 it was 6.8 µM; in the assay on U138MG it was 0.8 µM. Further, the “Cleavage of PARP (apoptosis)” value in [1] is “detected”. The “Apoptosis (cleaved PARP detection)” value in [2] was “undergo apoptosis”.

Consider `N#C/C(=C\c1cc(O)c(O)c(Br)c1)C(=S)NCc1cc(O)c(O)c(Br)c1` [Compound 6], for which the IC50 in the assay with MCF-7 is 2.1 µM; in the assay on BAF3 Bcr-Abl, 7.7 µM; in the assay with OVCAR3 it was over 10 µM; in the assay on 1376, 2.5 µM; in the assay with U266, 9.8 µM; in the assay with YUMAC (setting [3]), 8.5 µM. Moreover, the IC50 in the assay on YUMAC (setting [4]) was 8.5 µM; in the assay on PC3 (Homo sapiens, PC-3, 72 h), over 10 µM; with MO59K, 6.8 µM; with A2780 it was 0.1 µM; in the assay on Colo-205, over 10 µM; in the assay on DU145, over 10 µM. Besides, the IC50 in the assay with B16 was 7.9 µM; in the assay with MDA MB 231, over 10 µM; with QG56, 2.4 µM; in the assay with MDA MB 435, over 10 µM; in the assay on LIM 1215 it was over 10 µM; in the assay on LNCaP it was over 10 µM. Moreover, the figures for the IC50 in the assay on K562, in the assay with HT29 and in the assay with U138MG were over 10 µM, over 10 µM and 2 µM, respectively. Also, in [2], the “Apoptosis (cleaved PARP detection)” value is “undergo apoptosis”.
